From paper PMC10893631, “Receptor-based pharmacophore modeling, molecular docking, synthesis and biological evaluation of novel VEGFR-2, FGFR-1, and BRAF multi-kinase inhibitors” (BMC Chemistry, 2024)

Key:
BRAF (WT) = target: T1, BRAF (WT) (Homo sapiens, UniProt P15056); experiment: BRAF kinase assay kit (BPS), Kinase-Glo Max luminescence; type: biochemical
T1 construct: purchased BPS Biosciences 78316
Description: (§1) 2. Biochemical kinase assay procedure
The inhibitory activity against different kinases was determined using kinase kits […]
from BPS Biosciences and kinase-Glo Max luminescence kinase assay kit (Promega).
(§2) The assay was carried out according to the protocol provided by the manufacturer. A stock solution of the synthesized derivatives in 100% DMSO was prepared. Subsequently, the compounds were diluted to 10% DMSO.
(§3) A master mixture was prepared according to the number of wells. For VEGFR-2 and FGFR-1 biochemical assays each well include 6 μl of 5x Kinase Buffer 1 + 1 μl of 500 μM ATP + 1 μl of PTK Substrate (Poly-Glu,Tyr 4:1) (10 mg/ml) + 17 μl of distilled water. […]
(§4) The plate was incubated at 30 °C for 45 min. Subsequently, 50 μl of Kinase-Glo Max luminescence reagent was added to each well and the plate was covered with aluminum foil and incubated at room temperature 15 min. Finally, the luminescence was recorded using multimode microplate reader. […]
(§5) The luminescence data were analyzed as follows. The difference between luminescence intensities in the absence of kinase (Lut) and in the presence of kinase (Luc) was defined as 100 % activity (Lut – Luc). Using luminescence signal (Lu) in the presence of the compound, % activity was calculated as: % activity = {(Lut - Lu)/(Lut - Luc)}×100%. […]

MCF-7 cells [1] = experiment: Annexin V-FITC apoptosis assay; type: cell-based; conditions: MCF-7, at GI50 concentration
Description: As previously reported, the Annexin V-FITC apoptosis detection kit (Abcam Inc., Cambridge, UK) in conjunction with two fluorescent channels flow cytometry was used to identify the populations of apoptosis and necrosis cells. (For further details see Additional file 1: section II: practical results). […]
(§6) MCF-7: Breast Adenocarcinoma was obtained from Nawah Scientific Inc., (Mokatam, Cairo, Egypt). Cells were maintained in DMEM media supplemented with […] of streptomycin, 100 units/mL of penicillin and 10% of heat-inactivated fetal bovine serum in humidified, 5% (v/v) CO2 atmosphere at 37 °C. […]
Biosciences Inc., San Diego, CA, USA). […]
Apoptosis and necrosis cell populations are determined using Annexin V-FITC apoptosis detection kit (Abcam Inc., Cambridge Science Park, Cambridge, UK) coupled with 2 fluorescent channels flowcytometry. After treatment with test compounds for 48h, cells (105 […]
trypsinization and washed twice with ice-cold PBS (pH 7.4). Then, cells are incubated in dark with 0.5 ml of Annexin V-FITC/PI solution for 30 min in dark at room temperature according to manufacturer protocol. After staining, cells are injected via ACEA

FGFR-1 = target: T2, FGFR-1 (Homo sapiens, UniProt P11362); experiment: FGFR-1 kinase assay kit (BPS), Kinase-Glo Max luminescence; type: biochemical
T2 construct: purchased BPS Biosciences 40210
T2 sequence (P11362 22-822): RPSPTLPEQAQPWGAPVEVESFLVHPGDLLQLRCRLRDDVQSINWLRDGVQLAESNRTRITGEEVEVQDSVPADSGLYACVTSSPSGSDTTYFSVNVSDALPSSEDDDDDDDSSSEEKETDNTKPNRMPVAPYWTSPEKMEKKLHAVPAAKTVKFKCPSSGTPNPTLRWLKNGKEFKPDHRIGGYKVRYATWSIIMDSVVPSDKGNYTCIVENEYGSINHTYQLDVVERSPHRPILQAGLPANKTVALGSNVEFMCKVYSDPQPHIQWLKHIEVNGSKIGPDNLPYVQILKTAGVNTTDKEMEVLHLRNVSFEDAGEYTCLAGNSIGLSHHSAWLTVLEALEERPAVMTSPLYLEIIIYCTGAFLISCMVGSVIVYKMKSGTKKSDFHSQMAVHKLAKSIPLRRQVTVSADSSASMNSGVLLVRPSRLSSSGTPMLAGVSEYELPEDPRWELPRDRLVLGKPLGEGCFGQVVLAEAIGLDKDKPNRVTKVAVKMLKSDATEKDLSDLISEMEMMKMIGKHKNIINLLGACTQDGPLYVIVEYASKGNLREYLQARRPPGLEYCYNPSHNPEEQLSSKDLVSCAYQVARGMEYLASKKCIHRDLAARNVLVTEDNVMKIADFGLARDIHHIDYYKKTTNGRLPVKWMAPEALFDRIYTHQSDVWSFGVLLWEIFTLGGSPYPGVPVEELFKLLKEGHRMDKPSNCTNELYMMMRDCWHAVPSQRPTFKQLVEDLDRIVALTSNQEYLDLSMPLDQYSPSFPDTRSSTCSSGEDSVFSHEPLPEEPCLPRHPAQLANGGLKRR
Description: as §1
The inhibitory activity against different kinases was determined using kinase kits (VEGFR-2 cat ID: 40325), (FGFR-1 cat ID: 40210), (BRAF (WT) cat. ID: 78316); purchased from BPS Biosciences and kinase-Glo Max luminescence kinase assay kit (Promega).
as §2, §3, §4, §5

MCF-7 cells [2] = experiment: Cell cycle analysis by PI flow cytometry; type: cell-based; conditions: MCF-7, at GI50 concentration
Description: After the cells were handled as previously described, the distribution of the cells at each stage of the cell cycle was analysed. (For further details see Additional file 1: section II: practical results).
6. Analysis of Cell Cycle Distribution
as §6
cells) are collected by trypsinization and washed twice with ice-cold PBS (pH 7.4). Cells are re-suspended in two milliliters of 60% ice-cold ethanol and incubated at 4 °C for 1 h for fixation. Fixed cells are washed twice again with PBS (pH 7.4) and re-suspended in 1 mL of PBS containing 50 µg/mL RNAase A and 10 µg/mL propidium iodide (PI). After 20 min of incubation in dark at 37 C, cells are analyzed for DNA contents using flow cytometry analysis using FL2 (λex/em 535/617 nm) signal detector (ACEA Novocyte™ flowcytometer, ACEA Biosciences Inc., San Diego, CA, USA). For each sample, 12,000 events are acquired.
Cell cycle distribution is calculated using ACEA NovoExpress™ software (ACEA Biosciences Inc., San Diego, CA, USA).
*G0/G1-phase: This phase denotes the non-proliferating cells. Compounds with antiproliferative effect (regardless of their cytotoxicity) are expected to increase this cell […]
*S-phase: This phase denotes proliferating cells and particularly the cells who are undergoing DNA synthesis step of replication. Some compounds might induce S-phase […]
*G2/M-phase: This phase indicates the final phase of cell replication (mitosis). […]

T1 sequence (P15056 whole entry): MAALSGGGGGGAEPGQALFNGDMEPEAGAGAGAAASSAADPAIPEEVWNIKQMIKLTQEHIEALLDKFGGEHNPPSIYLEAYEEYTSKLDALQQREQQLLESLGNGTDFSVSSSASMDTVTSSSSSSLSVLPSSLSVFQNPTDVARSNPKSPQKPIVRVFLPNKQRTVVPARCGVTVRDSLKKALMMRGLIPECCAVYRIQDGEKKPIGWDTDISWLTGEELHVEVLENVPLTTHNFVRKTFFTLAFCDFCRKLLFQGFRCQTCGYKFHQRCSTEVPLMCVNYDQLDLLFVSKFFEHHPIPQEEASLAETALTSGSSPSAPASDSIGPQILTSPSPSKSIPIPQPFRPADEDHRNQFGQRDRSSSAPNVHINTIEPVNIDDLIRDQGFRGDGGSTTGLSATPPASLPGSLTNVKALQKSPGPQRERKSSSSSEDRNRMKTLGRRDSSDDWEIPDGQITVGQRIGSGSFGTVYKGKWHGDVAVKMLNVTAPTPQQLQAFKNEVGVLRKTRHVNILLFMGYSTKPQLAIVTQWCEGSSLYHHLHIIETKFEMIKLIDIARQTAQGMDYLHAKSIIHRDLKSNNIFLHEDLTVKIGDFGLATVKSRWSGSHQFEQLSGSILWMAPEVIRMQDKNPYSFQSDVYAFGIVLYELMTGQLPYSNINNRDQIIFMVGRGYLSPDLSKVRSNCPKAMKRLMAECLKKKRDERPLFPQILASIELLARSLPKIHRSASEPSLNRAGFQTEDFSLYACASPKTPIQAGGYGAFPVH

COc1cc(C=NNC(=O)c2ccc3[nH]c(-c4ccc(Cl)cc4)nc3c2)cc(OC)c1OC [8u, 2-(4-Chlorophenyl)-N'-(3,4,5-trimethoxybenzylidene)-1H-benzo[d]imidazole-5-carbohydrazide]
IC50 (BRAF (WT)): 250 ± 30 nM
apoptosis induction (MCF-7 cells [1]): induces cell apoptosis in MCF-7 cell line
% necrotic cells (Q2-1) (MCF-7 cells [1]; 48h): 1.09%
% viable cells (Q2-3) (MCF-7 cells [1]; 48h): 92.92%
% of cells in early apoptosis (Q2-4) (MCF-7 cells [1]; 48h, control 0.25%): 1.46%
% of cells in late apoptosis (Q2-2) (MCF-7 cells [1]; 48h, control 2.36%): 4.54%
IC50 (FGFR-1): 3740 ± 340 nM
cell cycle arrest (MCF-7 cells [2]): arrests the MCF-7 cell line at the G2/M phase
%Sub-G1 (MCF-7 cells [2]; 48h, control 2.64): 4.40%
%G2/M (MCF-7 cells [2]; 48h, control 20.60): 25.57%
%S (MCF-7 cells [2]; 48h, control 23.10): 29.11%
%G0/G1 (MCF-7 cells [2]; 48h, control 56.30): 45.32%
